Test results as given in the supplement of paper PMC10307832.

Tests used:
Test in all cases: relative viability (nuclei count vs DMSO), 5 days (fraction); higher = more cells survive
Selumetinib + Navitoclax = compound: Cn1cnc2c(F)c(Nc3ccc(Br)cc3Cl)c(C(=O)NOCCO)cc21 [Selumetinib] + CC1(C)CCC(c2ccc(Cl)cc2)=C(CN2CCN(c3ccc(C(=O)NS(=O)(=O)c4ccc(N[C@H](CCN5CCOCC5)CSc5ccccc5)c(S(=O)(=O)C(F)(F)F)c4)cc3)CC2)C1 [Navitoclax] (partner 0.5 µM)
Summary of the method: (§1)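 For relative viability, nuclei counts in treated wells were divided by those in vehicle wells. Lung cancer cell lines had been pin-tool dosed in 1536-well plates the day after seeding and cultured for 5 days, then fixed and stained in one step (final 0.05% Triton X-100, 1% formaldehyde, 1 ug/ml Hoechst) and imaged at 4×. Doses were one drug alone or a fixed anchor-drug dose plus five library-drug doses (not always all listed) in √10 steps, and values are duplicate-plate medians.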

Venetoclax + Trametinib = compound: CC1(C)CCC(CN2CCN(c3ccc(C(=O)NS(=O)(=O)c4ccc(NCC5CCOCC5)c([N+](=O)[O-])c4)c(Oc4cnc5[nH]ccc5c4)c3)CC2)=C(c2ccc(Cl)cc2)C1 [Venetoclax] + CC(=O)Nc1cccc(-n2c(=O)n(C3CC3)c(=O)c3c(Nc4ccc(I)cc4F)n(C)c(=O)c(C)c32)c1 [Trametinib] (partner 0.02 µM)
Summary of the method: as §1

Selumetinib + Tozasertib = compound: Cn1cnc2c(F)c(Nc3ccc(Br)cc3Cl)c(C(=O)NOCCO)cc21 [Selumetinib] + Cc1cc(Nc2cc(N3CCN(C)CC3)nc(Sc3ccc(NC(=O)C4CC4)cc3)n2)n[nH]1 [Tozasertib] (partner 0.1 µM)
Summary of the method: as §1

Venetoclax + Bortezomib = compound: CC1(C)CCC(CN2CCN(c3ccc(C(=O)NS(=O)(=O)c4ccc(NCC5CCOCC5)c([N+](=O)[O-])c4)c(Oc4cnc5[nH]ccc5c4)c3)CC2)=C(c2ccc(Cl)cc2)C1 [Venetoclax] + CC(C)C[C@H](NC(=O)[C@H](Cc1ccccc1)NC(=O)c1cnccn1)B(O)O [Bortezomib] (partner 0.002 µM)
Summary of the method: as §1

For UMC-11, the relative viability (Selumetinib + Navitoclax; first compound 0.02 µM) was 0.273, the relative viability (Selumetinib + Navitoclax; first compound 0.06325 µM) was 0.311 and the relative viability (Selumetinib + Navitoclax; first compound 0.2 µM) was 0.3. For the same cell line, the relative viability (Selumetinib + Navitoclax; first compound 0.6325 µM) was 0.314, the relative viability (Venetoclax + Trametinib; first compound 0.01 µM) was 0.674 and the relative viability (Venetoclax + Trametinib; first compound 0.03162 µM) was 0.74. It also gave a relative viability (Venetoclax + Trametinib; first compound 0.1 µM) of 0.713, a relative viability (Venetoclax + Trametinib; first compound 0.3162 µM) of 0.664 and a relative viability (Venetoclax + Trametinib; first compound 1 µM) of 0.749. It also gave a relative viability (Selumetinib + Tozasertib; first compound 0.02 µM) of 0.215, a relative viability (Selumetinib + Tozasertib; first compound 0.06325 µM) of 0.203 and a relative viability (Selumetinib + Tozasertib; first compound 0.2 µM) of 0.205. It also gave a relative viability (Selumetinib + Tozasertib; first compound 0.6325 µM) of 0.199, a relative viability (Venetoclax + Bortezomib; first compound 0.01 µM) of 0.625 and a relative viability (Venetoclax + Bortezomib; first compound 0.03162 µM) of 0.889. It also gave a relative viability (Venetoclax + Bortezomib; first compound 0.1 µM) of 0.604, a relative viability (Venetoclax + Bortezomib; first compound 0.3162 µM) of 0.732 and a relative viability (Venetoclax + Bortezomib; first compound 1 µM) of 0.691.
